Assay results as given in patent US20250270213A1, “PI3Ka INHIBITORS” (Synnovation Therapeutics, Inc., priority 2022, published 2025).
pIC50: −log10 of the molar value.

Tested on: T47D (PIK3CA H1047R) cells
Assay: pS473 AKT assay with 2.5% FBS, T47D cells
Assay type: cell-based
Conditions: Homo sapiens, pSer473 AKT, DMEM with 2.5% FBS, 2 h treatment, read-out: T47D_IC50
Method: Example B. pS473 AKT Assay Protocol with 2.5% FBS
T47D (PIK3CA H1047R) cells were cultured using 10-cm petri dishes with recommended medium plus 10% fetal bovine serum. One day before the assay, cells were seeded in 96-well plates. After overnight incubation, the medium was changed to DMEM with 2.5% fetal bovine serum (FBS) and the cells were treated with different concentrations of the compounds for 2 h. Cells were then fixed using 4% paraformaldehyde at room temperature for 20 min. Aspirate 4% paraformaldehyde, and wash cells using 1× regular phosphate buffered saline 3 times, 5 min each. Aspirate any residual phosphate buffered saline and block cells using 10% goat serum containing 1% bovine serum albumin and 0.3% Triton X-100 at room temperature for 1 h. Without any additional washing, primary antibodies (rabbit anti-pSer473 AKT) were diluted using blocking buffer and added at a final volume of 50 microliter per well. Keep assay plates with primary antibodies overnight at 4° C. Wash cells using 1× regular phosphate buffered saline 3 times, 5 min each. After the final wash, incubate cells with horseradish peroxidase-conjugated secondary antibodies (goat Anti-rabbit IgG) diluted using the same blocking buffer at room temperature for 1 h. Wash cells thoroughly using 1× regular phosphate buffered saline 3 times, 5 min each. Aspirate any residual phosphate buffered saline. Add Super-Signal ELISA Pico Chemiluminescent Substrate at a final volume of 100 microliter per well. Read plates on i3x Multi-Mode Microplate Reader and calculate IC50 values using GraphPad Prism software.

Row | SMILES | pIC50
1 | Cc1cc(C(C)Nc2ccc(Cl)nc2-c2noc(=O)[nH]2)c2c(c1)c(=O)n(C)c1c2cnn1C1CCOC1 (centres unmarked) [Compound 66, 3-(6-Chloro-3-((1-(4,7-dimethyl-5-oxo-3-(tetrahydrofuran-3-yl)-4,5-dihydro-3H-pyrazolo[3,4-c]isoquinolin-9-yl)ethyl)amino)pyridin-2-yl)-1,2,4-oxadiazol-5(4H)-one] | > 6.00
2 | COCCn1ncc2c3c(C(C)Nc4ccc(Cl)nc4-c4noc(=O)[nH]4)cc(C)cc3c(=O)n(C)c21 (centres unmarked) [Compound 67, 3-(6-Chloro-3-((1-(3-(2-methoxyethyl)-4,7-dimethyl-5-oxo-4,5-dihydro-3H-pyrazolo[3,4-c]isoquinolin-9-yl)ethyl)amino)pyridin-2-yl)-1,2,4-oxadiazol-5(4H)-one] | > 6.00
3 | Cc1cc(C(C)Nc2ccc(Cl)nc2-c2noc(=O)[nH]2)c2c(c1)c(=O)n(C)c1c2cnn1CC1CC1 (centres unmarked) [Compound 68, 3-(6-Chloro-3-((1-(3-(cyclopropylmethyl)-4,7-dimethyl-5-oxo-4,5-dihydro-3H-pyrazolo[3,4-c]isoquinolin-9-yl)ethyl)amino)pyridin-2-yl)-1,2,4-oxadiazol-5(4H)-one] | > 6.00
4 | CCn1ncc2c3c(C(C)Nc4ccc(Cl)nc4-c4noc(=O)[nH]4)cc(C(F)(F)F)cc3c(=O)n(C)c21 (centres unmarked) [Compound 69, 3-(6-Chloro-3-((1-(3-ethyl-4-methyl-5-oxo-7-(trifluoromethyl)-4,5-dihydro-3H-pyrazolo[3,4-c]isoquinolin-9-yl)ethyl)amino)pyridin-2-yl)-1,2,4-oxadiazol-5(4H)-one] | > 6.00
5 | Cc1cc(C(C)Nc2ccc(Cl)nc2-c2noc(=O)[nH]2)c2c(c1)c(=O)n1c3c2cnn3C(C)CC1 (centres unmarked) [Compound 70, 3-(6-Chloro-3-((1-(3,8-dimethyl-6-oxo-4,5-dihydro-3H,6H-2,2a,5a-triazaaceanthrylen-10-yl)ethyl)amino)pyridin-2-yl)-1,2,4-oxadiazol-5(4H)-one] | > 6.00
6 | CCc1ncn2c3c(C(C)Nc4ccc(Cl)nc4-c4noc(=O)[nH]4)cc(C)cc3c(=O)n(C)c12 (centres unmarked) [Compound 71, 3-(6-Chloro-3-((1-(3-ethyl-4,7-dimethyl-5-oxo-4,5-dihydroimidazo[1,5-a]quinazolin-9-yl)ethyl)amino)pyridin-2-yl)-1,2,4-oxadiazol-5(4H)-one] | > 6.00
7 | CCn1ncc2c3c(C(C)Nc4cccnc4-c4nnn[nH]4)cc(C)cc3c(=O)n(C)c21 (centres unmarked) [Compound 72, 9-(1-((2-(1H-Tetrazol-5-yl)pyridin-3-yl)amino)ethyl)-3-ethyl-4,7-dimethyl-3,4-dihydro-5H-pyrazolo[3,4-c]isoquinolin-5-one] | > 6.00
8 | CCn1ncc2c3c(C(C)Nc4ccc(Cl)nc4C(=O)NC4CCN(C)CC4)cc(C)cc3c(=O)n(C)c21 (centres unmarked) [Compound 73, 6-Chloro-3-((1-(3-ethyl-4,7-dimethyl-5-oxo-4,5-dihydro-3H-pyrazolo[3,4-c]isoquinolin-9-yl)ethyl)amino)-N-(1-methylpiperidin-4-yl)picolinamide] | > 6.00
9 | CCn1ncc2c3c(C(C)Nc4ccc(Cl)nc4C(=O)Nc4ccncc4)cc(C)cc3c(=O)n(C)c21 (centres unmarked) [Compound 74, 6-chloro-3-((1-(3-ethyl-4,7-dimethyl-5-oxo-4,5-dihydro-3H-pyrazolo[3,4-c]isoquinolin-9-yl)ethyl)amino)-N-(pyridin-4-yl)picolinamide] | > 6.00
10 | CCn1ncc2c3c(C(C)Nc4ccc(Cl)nc4C(=O)NOC)cc(C)cc3c(=O)n(C)c21 (centres unmarked) [Compound 75, 6-chloro-3-((1-(3-ethyl-4,7-dimethyl-5-oxo-4,5-dihydro-3H-pyrazolo[3,4-c]isoquinolin-9-yl)ethyl)amino)-N-methoxypicolinamide] | > 6.00
11 | CCn1ncc2c3c(C(CO)Nc4ccc(Cl)nc4-c4ccncc4F)cc(C)cc3c(=O)n(C)c21 (centres unmarked) [Compound 76, 9-(1-((6-Chloro-3′-fluoro-[2,4′-bipyridin]-3-yl)amino)-2-hydroxyethyl)-3-ethyl-4,7-dimethyl-3,4-dihydro-5H-pyrazolo[3,4-c]isoquinolin-5-one] | > 6.00
